From the NIST ThermoML archive (doi:10.1021/acs.jced.7b00483)
± gives the expanded uncertainty stated by the source.

Assay: molar heat capacity at constant pressure
Settings: 100 kPa, Liquid, Flow calorimetry

O [water]
molar heat capacity at constant pressure (298.15 K): 75.66 ± 0.16 J/K/mol
molar heat capacity at constant pressure (303.15 K): 75.57 ± 0.16 J/K/mol
molar heat capacity at constant pressure (308.15 K): 75.54 ± 0.16 J/K/mol
molar heat capacity at constant pressure (313.15 K): 75.5 ± 0.16 J/K/mol
molar heat capacity at constant pressure (318.15 K): 75.47 ± 0.16 J/K/mol
molar heat capacity at constant pressure (323.15 K): 75.45 ± 0.16 J/K/mol
molar heat capacity at constant pressure (328.15 K): 75.45 ± 0.16 J/K/mol
molar heat capacity at constant pressure (333.15 K): 75.47 ± 0.16 J/K/mol
molar heat capacity at constant pressure (338.15 K): 75.5 ± 0.16 J/K/mol
molar heat capacity at constant pressure (343.15 K): 75.57 ± 0.16 J/K/mol
molar heat capacity at constant pressure (348.15 K): 75.66 ± 0.16 J/K/mol
molar heat capacity at constant pressure (353.15 K): 75.77 ± 0.16 J/K/mol
molar heat capacity at constant pressure (358.15 K): 75.9 ± 0.16 J/K/mol
molar heat capacity at constant pressure (363.15 K): 76.02 ± 0.16 J/K/mol
